# Assay results: patent US20060115426A1, “Methods of detecting breast cancer, brain cancer, and pancreatic cancer” (priority 2004, published 2006)
# “Also recorded” adds a separate entry of the source.
# Assays:
# [1] = system: spontaneous mammary carcinomas; test: Bioscan imaging of 125I-NM404 in Apc Min/+ endogenous mammary adenocarcinoma model; type: in vivo, mouse
# From the text: Apc^Min/+ Mouse Model: This model is comprised of mice carrying the Min allele of Apc (Apc^Min/+ mice) and the type of lesions that appear in these mice are molecularly and histologically similar to breast cancer in humans. This model offers specific advantages over xenograft models in that female Apc^Min/+ mice are predisposed to developing mammary hyperplasias and carcinomas and intestinal adenomas. On the C57BL6/J genetic background, about 5% of untreated females will develop a mammary tumor by 100 days of age (Moser A R, et al. Proc. Natl. Acad. Sci. USA 90:8977-81, 1993). The incidence and multiplicity of the mammary lesions can be increased by a single dose of ethylnitrosourea (ENU), a direct acting alkylating agent. Treatment with ENU results in 90% of B6 Apc^Min/+ females developing an average of 3 mammary squamous cell carcinomas (SCC), but few hyperplasic lesions within 60 days after treatment.
# Genetic background can affect the incidence, latency, and type of mammary lesions that develop. For example, FVBxB6 Apc^Min/+ female mice develop an average of 0.2 mammary tumors per mouse, but 4 hyperplasias per mouse within 120 days of treatment. BALB/xB6 Apc^Min/+ develop an average of 1.8 mammary tumors and 0.6 hyperplasias per mouse (Moser A R, et al. Cancer Research 61:3480-3485, 2001). FVBxB6 and BALBxB6 Apc^Min/+ mice develop both mammary SCC and adenocarcinomas (AC).
# Imaging Studies: NM404 (100 μg) was radioiodinated with ^125I via isotope exchange in a melt of privalic acid. Following HPLC purification it was dissolved in an aqueous 2% tween-20 solution prior to tail vein injection (15 μCi/20 g mouse) into 6 female Apc^Min/+ mice. Mice were anesthetized and scanned for up to 30 days post injection on a modified Bioscan AR2000 radio-TLC scanner (1 mm increments at 2 mm acquisition/lane and 1 mm high-resolution collimator) and also in an ImTek microCT scanner (390 steps) for anatomic comparison. […] At sacrifice, mammary glands or excised tumors were imaged ex vivo, lesions were excised, weighed, and radioactivity quantitated. Lesion samples were submitted for histological classification. If necessary a long-acting CT blood pool contrast agent (BP20), as described in Weichert J P, et al. Radiology 216:865-871, 2000 and suitable for long microCT acquisitions times, was injected intravenously prior to CT scanning in order to assist in blood vessel visualization (FIG. 3).
# [2] = system: pancreatic adenocarcinomas; test: Bioscan imaging of 125I-NM404 in c-myc spontaneous pancreatic adenocarcinoma model; type: in vivo, mouse; conditions: c-myc transgenic mice, adenocarcinomas 5-12 mm in diameter
# From the text: Mouse Pancreatic Adenocarcinoma Models: Two murine strains that are transgenic for either c-myc or k-ras, well-known oncogenes, have been developed at the University of Wisconsin (Sandgren E P, et al. Proc. Natl. Acad. Sci. USA 88:93-97, 1991 and Grippo P J, et al. Cancer Research 63:2016-2019, 2003). Expression of c-myc is targeted to pancreatic acinar cells because it is linked to an elastase promoter, which is only expressed in the pancreas. These ela-1-myc transgenic mice develop acinar and ductal neoplasia, which results in death between 2 and 7 months of age. By one month of age, the pancreas appears thickened and firm. Thus mice between the ages of 1-3 months serve as excellent models for the study of pancreatic cancer. Most human pancreatic neoplasms have a ductal morphology, and Dr. Sandgren's transgene targeting strategies are aimed at developing tumors that are specific for pancreatic ductal epithelium.
# Imaging Studies: In order to determine if NM404 localizes in mouse pancreatic tumors, six c-myc transgenic mice were scanned on a Bioscan AR-2000 radioTLC scanner (modified by inventors for mouse imaging) from 2-21 days after tail vein injection of ^[…] (15 μCi/20 g body weight). […] At sacrifice, tissues were excised, weighed, and radioactivity quantitated in a gamma counter.
# [3] = system: C6 gliomas; test: Biodistribution (tissue distribution) of 125I-NM404 in glioma-bearing rats; type: in vivo, rat; conditions: for Tumor/brain ratio: based on % injected dose/g; for tissue distribution, Thyroid: indicator of in vivo deiodination
# Description: (§1) Glioma tumor model: All animals were housed and handled in accordance with the University of Wisconsin Research Animal Resources Center guidelines. Rat C6 glioma cells were propagated in DMEM medium (Life Technologies, Gaithersburg, Md.) supplemented with 10% heat-inactivated FBS (BioWhittaker, Walkersville, MD), 100 U/ml penicillin-G, 100 μg/ml streptomycin, and 0.01 M hepes (Life Technologies, Gaithersburg, Md.). Intracranial tumor implantation was performed as described in Badie B, et al. J. Neuroimmunol. 133:39-45, 2002. Briefly, 1×10^6 C6 cells were resuspended in 5 μl of 1.2% methylcellulose and injected into the frontal lobes of anesthetized female Wistar rats (Harlan, Indianapolis, Ind.). Sham-operated animals received intracranial injections of an equal volume of methylcellulose without tumor cells.
# Biodistribution studies: Rats bearing C6 gliomas (n=4, 10 day old tumors), and sham-operated rats (n=3) were injected with ^125I-NM404 (15 μCi/200 g rat) and biodistribution studies performed as described in Rampy M A, et al. J. Med. Chem. 38:3156-3162, 1995. Accordingly, animals were euthanized by exsanguination at 24, 48, and 96 hours following injection. A total of 17 tissues including blood, plasma, adrenal glands, bladder wall, bone marrow, brain, eye lens, fat, heart, kidney, liver, lung, muscle, spleen, skin, thyroid, and tumor were excised, rinsed, and dissected free of extraneous tissue. Tissues were minced and duplicate samples weighed and placed in plastic tubes for isotope counting in a gamma counter (Perkin Elmer/Wallac Wizard-1470). Injection site and residual carcass radioactivity were determined in a well counter (Capintec CRC-15R). Time normalized tissue distribution tables were generated by a custom computer program which produces decay-corrected tissue radioactivity concentration data on a percent injected dose/g, […], and percent injected dose/organ±SEM basis.
# [4] = system: viable tumor cells; test: Autoradiography experiments in other tumor models; type: in vivo; conditions: versus normal or necrotic tissues
# [5] = system: C6 gliomas; test: Bioscan imaging of excised brains of C6 glioma-bearing and sham-operated rats; type: in vivo, rat
# Description: as §1
# Imaging studies: Ten days after implantation rats were screened for the presence of intracranial tumors with MRI as described in Badie B, et al. Clin. Cancer Res. 9:872-877, 2003. […]
# NM404 (100 μg) was radioiodinated with ^125I via isotope exchange in a melt of pivalic acid (Weichert J P, et al. Int J Appl Rad Isotopes 37:907-913,1986). […] Co-registered Bioscan images and digital photographs were fused (Corel Photo-Paint) in order to accurately determine the location of radioactivity. […]
# [6] = system: CNS-1 brain tumor xenografts; test: MicroPET evaluation of 124I-NM404 in rat CNS-1 brain tumor model; type: in vivo; conditions: CNS-1 rats
# Description: NM404 was radiolabeled with ^124I in excellent radiochemical yield (>60% isolated yield, >99% purity) via isotope exchange reaction of stable NM404 with sodium-iodide (Eastern Isotopes, Sterling Va.). Following preparative HPLC purification ^124I-NM404 was solubilized in 2% Tween-20 and filtered (0.22 micron). NM404 (130-200 μCi in 0.1 ml) was injected (i.v., tail vein) into 6 rats with CNS-1 brain tumor xenografts. MicroPET images (Concorde Microsystems-P4, 30 min acquisition) were acquired immediately after and at 6 h, 24 h, and 96 h post injection. Contrast-enhanced MRI images were obtained immediately following the final PET scan and PET/MRI images were manually fused using Amira (V3.1, TGS, Inc). Rats were euthanized and brain tissue subjected to histopathologic analysis.
# [7] = Apc Min/+ mice, Bioscan imaging
smiles,measurement,setting,value
"C[N+](C)(C)CCOP(=O)([O-])OCCCCCCCCCCCCCCCCCCc1ccc(I)cc1 [NM404, 18-(p-iodophenyl)-octadecylphosphocholine]",HPLC analysis of radioactive urine and feces,[1]; Apc Min/+ mice after i.v. 125I-NM404,presence of metabolites and no parent NM404
same,localization in focal alveolar (mammary) hyperplasias,[1]; [7],no corresponding focal activity; also recorded: did not localize
same,localization in intestinal adenomatous polyps,[1]; [7],no uptake; also recorded: did not localize
same,uptake in spontaneous mammary carcinomas,"[1]; Apc Min/+ mice, i.v. 125I-NM404 15 μCi/20 g, carcinomas 2-15 mm in diameter",> 20 % dose/g
same,tumor retention,"[1]; Apc Min/+ mice, mammary carcinomas, 21 days = predetermined study endpoint",> 21 days
same,retention in pancreatic adenocarcinomas,[2],> 21 days
same,uptake in pancreatic adenocarcinomas,[2]; i.v. 15 μCi/20 g,striking uptake
same,Tumor/brain ratio,[3]; 24 h,10.6
same,"tissue distribution, Thyroid","[3]; 48 h, N = 1",2.3 % injected dose/g tissue
same,Tumor/brain ratio,[3]; 48 h,12.0
same,"tissue distribution, Thyroid","[3]; 96 h, N = 2, ± SEM",9.0 % injected dose/g tissue
same,Tumor/brain ratio,[3]; 96 h,7.8
same,cells/tissues capable of accumulating NM404 (autoradiography),[4],only viable tumor cells
same,tracer uptake in C6 gliomas on Bioscan images,"[5]; C6 glioma-bearing rats, 24-96 h after i.v. 125I-NM404 15 μCi/200 g",intense localization; also recorded: concentrated intensely
same,radioactivity in normal brain tissue,[5]; sham operated control rats,minimal
C[N+](C)(C)CCOP(=O)([O-])OCCCCCCCCCCCCCCCCCCc1ccc([124I])cc1 [^124 I-NM404],tumor uptake (microPET),[6]; 6 hours following injection,respectable tumor uptake
same,concomitant normal brain tissue activity (microPET),[6]; any time point,Little to no
same,tumor conspicuity (microPET),[6]; at either 24 or 96 hours,significant
same,tumor uptake (microPET),[6]; within 30 minutes of i.v. injection,no tumor uptake
C[N+](C)(C)CCOP(=O)([O-])OCCCCCCCCCCCCCCCCCCc1ccc([125I])cc1 [^125I-NM404],"tissue distribution, Blood","[3]; 24 h, N = 1",1.83 % injected dose/g tissue
same,"tissue distribution, Brain","[3]; 24 h, N = 1",0.07 % injected dose/g tissue
same,"tissue distribution, Glioma","[3]; 24 h, N = 1",0.74 % injected dose/g tissue
same,"tissue distribution, Kidney","[3]; 24 h, N = 1",0.91 % injected dose/g tissue
same,"tissue distribution, Liver","[3]; 24 h, N = 1",0.77 % injected dose/g tissue
same,"tissue distribution, Spleen","[3]; 24 h, N = 1",0.80 % injected dose/g tissue
same,Tumor/brain ratio,[3]; 24 h,10.6
same,"tissue distribution, Blood","[3]; 48 h, N = 1",1.16 % injected dose/g tissue
same,"tissue distribution, Brain","[3]; 48 h, N = 1",0.05 % injected dose/g tissue
same,"tissue distribution, Glioma","[3]; 48 h, N = 1",0.60 % injected dose/g tissue
same,"tissue distribution, Kidney","[3]; 48 h, N = 1",0.44 % injected dose/g tissue
same,"tissue distribution, Liver","[3]; 48 h, N = 1",0.30 % injected dose/g tissue
same,"tissue distribution, Spleen","[3]; 48 h, N = 1",0.33 % injected dose/g tissue
same,"tissue distribution, Thyroid","[3]; 48 h, N = 1",2.34 % injected dose/g tissue
same,Tumor/brain ratio,[3]; 48 h,12.0
same,"tissue distribution, Blood","[3]; 96 h, N = 2, ± SEM",0.82 ± 0.01 % injected dose/g tissue
same,"tissue distribution, Brain","[3]; 96 h, N = 2, ± SEM",0.09 ± 0.02 % injected dose/g tissue
same,"tissue distribution, Glioma","[3]; 96 h, N = 2, ± SEM",0.70 ± 0.04 % injected dose/g tissue
same,"tissue distribution, Kidney","[3]; 96 h, N = 2, ± SEM",0.45 ± 0.05 % injected dose/g tissue
same,"tissue distribution, Liver","[3]; 96 h, N = 2, ± SEM",0.39 ± 0.01 % injected dose/g tissue
same,"tissue distribution, Spleen","[3]; 96 h, N = 2, ± SEM",0.33 ± 0.03 % injected dose/g tissue
same,"tissue distribution, Thyroid","[3]; 96 h, N = 2, ± SEM",9.06 ± 3.84 % injected dose/g tissue
same,Tumor/brain ratio,[3]; 96 h,7.8
